From patent publication US20020044943A1, “MUC-1 as an immunosuppressive therapeutic agent for the treatment of inflammatory and autoimmune conditions” (priority 1997, published 2002)

Assays:
human T-cell cultures = assay: Mixed lymphocyte reaction (allo-antigenic T-cell proliferation); format: cell-based; conditions: B27.29 affinity purified MUC-1 mucin, various doses, in vitro
Protocol: The mixed lymphocyte reaction is conducted by mixing the lymphocytes of HLA disparate individuals in in vitro tissue cultures. The “responder population” in this experiment is purified T-cells from one population, while the “stimulator” population in this experiment is the adherent antigen presenting cells obtained from an HLA mismatched individual donor. The two cell populations were mixed and cultured either in the presence or absence of various doses of B27.29 affinity purified MUC-1 mucin that was purified from a pleural effusion fluid.

GZ-Hi tumor cells = assay: Tumor take after i.v. MUC-1 mucin and subcutaneous tumor challenge; format: in vivo; conditions: CB6 mice, MUC-1 mucin 20 micrograms i.v. on days -2, +2, +6; 1x10^6 GZ-Hi cells s.c.; observed 8 weeks
Protocol: The procedures employed in this example are similar to those described in Fung, et al. Cancer Research 51:1170-1176 (1991), which is hereby incorporated by reference. However, in the present example, the human MUC-1 system was used instead of the epiglycanin system.
CB6 mice were injected intravenously with MAb B27.29 affinity purified MUC-1 mucin (20 micrograms each treatment or approximately 400 units) prior to (day-2) and after (days +2 and +6) an attempted tumor challenge. Affinity purified mucin had been prepared by affinity adsorption on a B 27.29 CnBr-Sepharose matrix from a pleural effusion fluid obtained from a patient with adenocarcinoma of the ovaries. MUC-1 mucin treated and control mice were challenged with 1×10^6 GZ-Hi tumor cells injected into the subcutaneous space along the flank. Mice were observed by palpation and visual inspection at the injection site for the occurrence of tumors over a period of 8 weeks.

[1] = target: T1, recombinant human ICAM-1-Ig fusion protein (Homo sapiens, UniProt P05362); assay: Tumor cell-immobilized ICAM-1 adhesion assay; format: cell-based; conditions: antibodies 10 or 20 ug/mL, soluble MUC-1 10 ug/mL
T1 construct: coated with 50 uL of a solution with 20 ug/mL recombinant soluble ICAM-1 in PBS; Ig (immunoglobulin) fusion partner
T1 sequence (P05362 28-480 limits assumed): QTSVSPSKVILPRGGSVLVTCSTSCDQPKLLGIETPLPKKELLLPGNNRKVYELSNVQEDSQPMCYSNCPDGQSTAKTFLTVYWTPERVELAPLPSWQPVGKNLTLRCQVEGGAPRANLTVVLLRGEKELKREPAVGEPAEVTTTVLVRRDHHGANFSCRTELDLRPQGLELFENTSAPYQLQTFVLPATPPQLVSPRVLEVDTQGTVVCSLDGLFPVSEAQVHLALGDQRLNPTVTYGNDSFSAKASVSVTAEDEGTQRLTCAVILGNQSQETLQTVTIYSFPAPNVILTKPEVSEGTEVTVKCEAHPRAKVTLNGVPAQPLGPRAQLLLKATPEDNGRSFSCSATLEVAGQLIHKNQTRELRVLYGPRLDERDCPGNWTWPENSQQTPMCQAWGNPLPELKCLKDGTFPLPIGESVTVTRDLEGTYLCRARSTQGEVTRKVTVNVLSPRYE
Protocol: 96 well tissue culture plates were coated with 50 uL of a solution with 20 ug/mL recombinant soluble ICAM-1 in PBS for 1 hr at room temperature. Wells were then blocked with 1% BSA for 2 hr at 37 C. and washed four times with PBS. Antibodies (10 ug/mL) (anti-ICAM-1 164B, 18E3D, 84H10, anti-E selectin 1.2B6) and soluble MUC-1 (10 ug/mL) were added to the wells for 90 min. at room temperature. Wells were then washed again before addition of cells. BCECF labeled tumor cells were pretreated +/− 20 ug/mL of anti-MUC-1 (B27.29, or DF3P) and were then added to the appropriate wells for 40 min. at 37 C. Wells were then washed and percent adhesion was then determined as described in the tumor cell—endothelial cell adhesion assay.
To exclude the possibility that adhesion was being mediated by endothelial molecules other than ICAM-1, the adhesion of the MUC-1 transfectants was studied using immobilized recombinant human ICAM-1-Ig fusion protein. Adhesion was compared to Bovine Serum Albumin and Collagen type I as controls.

Purified T cells = assay: T cell proliferation assay (allo MLR, 3H-thymidine incorporation); format: cell-based, human; conditions: 10 ug/ml, allo PBL stimulated T cells
Protocol: Enriched T cell populations were purified from buffy coats obtained from normal red cross donors using nylon wool columns by previously reported procedures. […] For the allo MLR, mitomycin C treated allogeneic PBLs were cocultured with purified T cells in the presence or absence of affinity purified MUC-1 mucin or control OSM. In most of the experiments, the T cells were cultured 6-7 days in AIM V medium in the absence or presence of MUC-1, MUC-1 derivative or OSM at the indicated concentration. After this time, the T cells were harvested, washed and cultured as indicated.
Purified T cells (10^6/ml) were cultured in AIM V medium with allo PBLs in the absence or presence of MUC-1, MUC-1 derivative or OSM 10 ug/ml for 6-7 days. T cells were harvested and plated in 96 well flat bottom plates at 10^5/well with allo PBLs (10^5/well), in the presence or absence of affinity purified MUC-1, MUC-1 derivative or OSM. Control cultures were treated with either 50 U/ml IL-2 or 1 ug/ml anti-CD28 Mab. After 4 days of culture, ^3H-thymidine (1 uCi/well) was added. The cells were harvested on the fifth day and ^3H-thymidine incorporation was measured by liquid scintillation.
Synthetic peptides, as described in Example 8, corresponding to 3, 4, 5 or 6 MUC-1 repeats, were added at 10 ug/ml to allo cultures and T cell proliferation was measured at 14 days from the start of culture. […]

With “MUC-1: MAb B27.29 affinity purified human MUC-1 mucin from pleural effusion or ascites fluid of cancer patients” the “inhibition of T-cell proliferation against a strong allo-antigenic stimulus” value (human T-cell cultures) was “strongly inhibits”, the “% Tumor Take” value (GZ-Hi tumor cells) was 100% and the “inhibition of GZHi adhesion to immobilized ICAM-1” value [1] was “equally effective at blocking adhesion”. For the same substance, the “reduction of T cell proliferation relative to control” value (Purified T cells) was “inhibition of T cell proliferation”.
